Earlier results, collected in patent publication US7413690B1, “Process and apparatus for producing spherical pellets using molten solid matrices” (The University of Mississippi, priority 2003, dated 2008).

Row | SMILES | water solubility (in words)
1 | C[C@@H]1C[C@H]2[C@@H]3CCC4=CC(=O)C=C[C@]4(C)[C@@]3(F)[C@@H](O)C[C@]2(C)[C@@]1(O)C(=O)CO [Dexamethasone] | water insoluble
2 | Cn1c(=O)c2[nH]cnc2n(C)c1=O [theophylline] | water soluble
